Assay results published in patent publication US20260364210A1, “COMPOSITIONS AND METHODS FOR TRANSGLUTAMINASE-MEDIATED ENDOCYTOSIS” (The Board of Trustees of the Leland Stanford Junior …, priority 2022, published 2026).
Starred links: 1 amine or outer side, 2 acyl side, 3 side chain; linkers in the order of their positions; H or OH if unused. Non-standard residues stand in square brackets, D forms with d. Residues, ends and D or L forms follow the SMILES beside them. Groups on a side chain read outwards from the residue. *: point of attachment. Biotin = O=C1N[C@H]2[C@H](CS[C@H]2CCCCC(=O)*)N1; X1 = CN(C)C(=O)/C=C/CC[C@H](N[*:1])C(=O)[*:2]; PEG4 = NCCOCCOCCOCCOCCC(=O)O; Dab = NCC[C@H](N)C(=O)O

Assays:
[1] = system: normal rat kidney (NRK) cells; test: Uptake of fluorescent probe by NRK cells with or without α2M; format: cell-based
Description: (§1) (C) Fluorescently tagged α2M colocalizes strongly with HB-230.
FIG. 15. Uptake of HB-2121.
Puncta of two distinct sizes were observed.
To verify that HB230 internalization was dependent on TG2 activity, HB258 was designed and synthesized as a control probe. This dihydro-analog is otherwise identical to HB230 but lacks its electrophilic warhead and is therefore unable to irreversibly bond to the active site C277 residue of TG2.

[2] = system: α2M; test: Co-endocytosis of HB230 and fluorescent α2M in NRK cells; format: cell-based; conditions: larger, but not smaller, puncta
Procedure: as §1
To obtain definitive evidence for co-endocytosis of HB230 and α2M, a fluorescent batch of α2M was prepared.

[3] = system: early endosome antigen-1 (EEA-1); test: Colocalization with early endosomes (EEA-1 antibody staining) in NRK cells; format: cell-based, rat; conditions: co-incubated with α2M, 90 min
Procedure: (§2) To establish the identity of these large intracellular puncta, NRK cells were transfected with RFP tagged lysosomal-associated membrane protein (LAMP-1). Wild-type and transfected cells were co-incubated with α2M and HB230 for 90 min prior to fixation. To test the hypothesis that the large puncta corresponded to early endosomes, fixed wild-type cells were stained with an antibody against early endosome antigen-1 (EEA-1).

[4] = system: lysosomal-associated membrane protein (LAMP-1); test: Colocalization with RFP-tagged LAMP-1 in transfected NRK cells; format: cell-based, rat; conditions: co-incubated with α2M, 90 min; large puncta
Procedure: as §2

[5] = system: WT MEFs; test: Uptake of HB230 and α2M in wild-type MEFs; format: cell-based; conditions: exogenous TRX and betamethasone, with α2M
Description: Low density lipoprotein (LDL) receptor-related protein 1 (LRP-1, a.k.a., (α2M receptor or CD91), a member of the LDL receptor family, is responsible for receptor-mediated endocytosis of α2M. Although this receptor is expressed on the surface of a wide range of cell types within the body, α2M endocytosis by LRP-1 is only triggered when this ubiquitous plasma protein undergoes a conformational change upon binding to its protease or non-protease ligands (Bres and Faissner, 2019). We sought to establish whether endocytosis of the ternary α2M-TG2-peptide complex was mediated by LRP-1 using pharmacologic inhibitors of clathrin mediated endocytosis.

[6] = system: LRP-1 knockout MEFs; test: Uptake of HB230 and α2M in LRP-1 knockout MEFs; format: cell-based; conditions: exogenous TRX and betamethasone, with α2M
[7] = system: pepsin; test: Metabolism by pepsin; format: in vitro ADME; conditions: role: substrate
Description: (§3) HB-2121 is analogous to the TG2 inhibitor/probe HB-230 but with one modification; the primary amide C-terminus of HB-230 was replaced with a tertiary dimethyl amide. This change greatly enhances the gastrointestinal stability of the probe.

[8] = system: trypsin; test: Metabolism by trypsin; format: in vitro ADME; conditions: role: substrate
Description: as §3

[9] = system: elastase; test: Metabolism by elastase; format: in vitro ADME; conditions: role: substrate
Description: as §3

[10] = system: chymotrypsin; test: Metabolism by chymotrypsin; format: in vitro ADME; conditions: role: substrate
Description: (§4) FIGS. 14A-14B. Metabolic stability of HB-230 and HB-2121. (A) HB-230 is transformed by chymotrypsin to give the C-terminal carboxylic acid. This metabolite is subsequently cleaved by carboxypeptidase to give the tetrapeptide without the terminal phenylalanine. (B) HB-2121 is stable to both chymotrypsin and carboxypeptidase mediated metabolism.
as §3

[11] = system: carboxypeptidase; test: Metabolism by carboxypeptidase; format: in vitro ADME; conditions: role: substrate, subsequent to chymotrypsin
Description: as §4, §3

[12] = Endocytosis of fluorescent streptavidin by NRK cells; format: cell-based, rat; conditions: 2 μM HB2110, 1 μM Cy5-conjugated streptavidin
Procedure: FIG. 11: (A) Treating NRK cells with increasing concentrations of HB-3-003 in the presence of fluorescently tagged streptavidin leads to increased internalization of streptavidin after a 90 min treatment. (B) Quantification of dose response.
In order to determine the ability of this pathway to clear specifically targeted proteins from the extracellular environment, we synthesized a pentapeptide harboring the electrophilic warhead and a PEG-4 biotin conjugated to the DAB substituted Y amino acid (HB2110). Streptavidin is expected to bind to the biotin arm of the probe, and thus be endocytosed along with the rest of the complex as previously described. To test this hypothesis NRK cells were treated with 2 μM HB2110 and 1 μM Cy5-conjugated streptavidin.
We also synthesized the equivalent pentapeptide harbouring a Gln residue in the place of the electrophilic warhead, with biotin conjugated to the DAB substituted Y amino acid through a PEG linker (HB3-3). We then assed the ability of cells to endocytose fluorescent streptavidin in the presence of HB3-3 and α2M.

Structure (SMILES) | uptake by NRK cells in the presence of α2M ([1]; 100 μg/mL of α2M) | uptake by NRK cells ([1]; 1 TM (so in the source) exogenous probe, 90 min) | uptake by NRK cells on supplementation with α2M ([1]; NRK cells supplemented with increasing α2M) | overlap with fluorescent α2M [2] | localization relative to EEA-1 [3] | co-localization with RFP-tagged LAMP-1 [4] | internalization of ternary complex [5] | formation of large co-stained puncta [6] | resistance to metabolism by pepsin [7] | resistance to metabolism by trypsin [8] | resistance to metabolism by elastase [9] | metabolism by chymotrypsin [10] | metabolism by carboxypeptidase [11] | colocalization of Cy5-streptavidin with α2M [12]
CC(=O)N1CCC[C@H]1C(=O)N[C@@H](CC/C=C/C(=O)N(C)C)C(=O)N[C@@H](CCNC(=O)CCCCC[N+]1=C(/C=C/C=C/C=C2/N(C)c3ccc(S(=O)(=O)O)cc3C2(C)C)C(C)(C)c2cc(S(=O)(=O)[O-])ccc21)C(=O)N1CCC[C@H]1C(=O)N[C@@H](Cc1ccccc1)C(N)=O [HB-230, AcPro-HWE-(Dab-SCy5)-Pro-Phe] | robustly taken up | robust uptake | strong dose-dependent increase in uptake of HB230 up to ~100 μg/ml | strong overlap | appear in distinct sub-cellular compartments for the most part | strongly co-localizes with RFP-tagged LAMP-1 in the large puncta | internalized the ternary complex | marked defect in their ability to form large co-stained puncta | resistance to metabolism | resistance to metabolism | resistance to metabolism | enzymatic deamidation at the C-terminus (CONH2→CO2H) | subsequent cleavage of the C-terminal phenylalanine | –
CC(=O)N1CCC[C@H]1C(=O)N[C@@H](CC/C=C/C(=O)N(C)C)C(=O)N[C@@H](CCNC(=O)CCOCCOCCOCCOCCNC(=O)CCCC[C@@H]1SC[C@@H]2NC(=O)N[C@@H]21)C(=O)N1CCC[C@H]1C(=O)N[C@@H](Cc1ccccc1)C(N)=O [HB-2110] (Ac-P[X1][Dab]([PEG4-Biotin])PF-NH2) | – | – | – | – | – | – | – | – | – | – | – | – | – | found to colocalize with α2M in the lysosomal compartment
